Earlier results in paper PMC4512239 (Clinical cancer research : an official journal of the …, 2015).

Settings: allosteric m-TOR inhibitors; cited from earlier work

## CO[C@H]1C[C@@H]2CC[C@@H](C)[C@@](O)(O2)C(=O)C(=O)N2CCCC[C@H]2C(=O)O[C@H]([C@H](C)C[C@@H]2CC[C@@H](OC(=O)C(C)(CO)CO)[C@H](OC)C2)CC(=O)[C@H](C)/C=C(\C)[C@@H](O)[C@@H](OC)C(=O)[C@H](C)C[C@H](C)/C=C/C=C/C=C/1C [temsirolimus]
  half-life: ≥ 24 h

## CO[C@H]1C[C@@H]2CC[C@@H](C)[C@@](O)(O2)C(=O)C(=O)N2CCCC[C@H]2C(=O)O[C@H]([C@H](C)C[C@@H]2CC[C@@H](OCCO)[C@H](OC)C2)CC(=O)[C@H](C)/C=C(\C)[C@@H](O)[C@@H](OC)C(=O)[C@H](C)C[C@H](C)/C=C/C=C/C=C/1C [everolimus]
  half-life: ≥ 24 h

## CO[C@H]1C[C@@H]2CC[C@@H](C)[C@@](O)(O2)C(=O)C(=O)N2CCCC[C@H]2C(=O)O[C@H]([C@H](C)C[C@@H]2CC[C@@H](OP(C)(C)=O)[C@H](OC)C2)CC(=O)[C@H](C)/C=C(\C)[C@@H](O)[C@@H](OC)C(=O)[C@H](C)C[C@H](C)/C=C/C=C/C=C/1C [ridaforolimus]
  half-life: ≥ 24 h
